Laboratory results reported in patent US12145939B2, “Substituted [1,2,4]triazolo[4,3-a]pyrazines as ion channel modulators” (PRAXIS PRECISION MEDICINES, INC., priority 2019, dated 2024).

Biological target: T1, human NaV1.6 (hNaV1.6) (Homo sapiens, UniProt Q9UQD0)
T1 construct: expressed in transfected cells; host or cells: HEK-293
Experiment: Modulation of late sodium current (INaL) at hNaV1.6, PatchXpress electrophysiology
Format: cell-based
Conditions: HEK293, HEK-293 cells expressing recombinant human NaV 1.6, late current evoked by 300 nM ATX-II, read-out: NaV 1.6 Assay Data (percent inhibition of INaL at hNaV1.6)
Description: Functional characterization of exemplary compounds to modulate INaL expressed by the NaV1.6 voltage-gated sodium channel was accomplished using the PatchXpress™ high throughput electrophysiology platform (Molecular Devices, Sunnyvale, CA). HEK-293 cells expressing recombinant, human NaV1.6 (hNaV1.6) were grown in DMEM/high-glucose Dulbecco's modified, 10% FBS, 2 mM sodium pyruvate, 10 mM HEPES and 400 μg/mL G418. Cells were grown to 50%-80% confluency prior to harvesting. Trypsinized cells were washed, allowed to recover for 1 hour and then resuspended in extracellular recording solution at a concentration of 1×10^6 cells/ml. The onboard liquid handling facility of the PatchXpress was used for dispensing cells and applying test compounds. NaV late currents were evoked by the application of 300 nM ATX-II. INaL was evoked by depolarizing pulses to 0 mV for 200 ms from a non-inactivating holding potential (e.g., −120 mV) at a frequency of 0.1 Hz. INaL amplitude and stability were determined by analyzing the mean current amplitude over the final 20 ms of the test pulse. Following steady state block with exemplary compounds (e.g., as described herein), a Na+ free solution containing an impermeant cation (e.g., Choline or NDMG) was added to confirm the identity of the sodium current. Percent steady-state inhibition of INaL was calculated as: […], where INaL_compound and INaL_control represent INaL recorded in the presence or absence of compound, respectively.
Results from this assay relating to percent inhibition of INaL at hNaV1.6 (measured using a procedure similar to described above but using HEK-293 cells expressing recombinant, human NaV 1.6 (h NaV 1.6) at 1 μM are summarized in Table 1 below. In this table, “A” indicates inhibition of less than 30%; “B” indicates inhibition of between about 30% to about 70%; and “C” indicates inhibition of greater than 70%. “N/A” indicates not available.

T1 sequence (Q9UQD0 whole entry): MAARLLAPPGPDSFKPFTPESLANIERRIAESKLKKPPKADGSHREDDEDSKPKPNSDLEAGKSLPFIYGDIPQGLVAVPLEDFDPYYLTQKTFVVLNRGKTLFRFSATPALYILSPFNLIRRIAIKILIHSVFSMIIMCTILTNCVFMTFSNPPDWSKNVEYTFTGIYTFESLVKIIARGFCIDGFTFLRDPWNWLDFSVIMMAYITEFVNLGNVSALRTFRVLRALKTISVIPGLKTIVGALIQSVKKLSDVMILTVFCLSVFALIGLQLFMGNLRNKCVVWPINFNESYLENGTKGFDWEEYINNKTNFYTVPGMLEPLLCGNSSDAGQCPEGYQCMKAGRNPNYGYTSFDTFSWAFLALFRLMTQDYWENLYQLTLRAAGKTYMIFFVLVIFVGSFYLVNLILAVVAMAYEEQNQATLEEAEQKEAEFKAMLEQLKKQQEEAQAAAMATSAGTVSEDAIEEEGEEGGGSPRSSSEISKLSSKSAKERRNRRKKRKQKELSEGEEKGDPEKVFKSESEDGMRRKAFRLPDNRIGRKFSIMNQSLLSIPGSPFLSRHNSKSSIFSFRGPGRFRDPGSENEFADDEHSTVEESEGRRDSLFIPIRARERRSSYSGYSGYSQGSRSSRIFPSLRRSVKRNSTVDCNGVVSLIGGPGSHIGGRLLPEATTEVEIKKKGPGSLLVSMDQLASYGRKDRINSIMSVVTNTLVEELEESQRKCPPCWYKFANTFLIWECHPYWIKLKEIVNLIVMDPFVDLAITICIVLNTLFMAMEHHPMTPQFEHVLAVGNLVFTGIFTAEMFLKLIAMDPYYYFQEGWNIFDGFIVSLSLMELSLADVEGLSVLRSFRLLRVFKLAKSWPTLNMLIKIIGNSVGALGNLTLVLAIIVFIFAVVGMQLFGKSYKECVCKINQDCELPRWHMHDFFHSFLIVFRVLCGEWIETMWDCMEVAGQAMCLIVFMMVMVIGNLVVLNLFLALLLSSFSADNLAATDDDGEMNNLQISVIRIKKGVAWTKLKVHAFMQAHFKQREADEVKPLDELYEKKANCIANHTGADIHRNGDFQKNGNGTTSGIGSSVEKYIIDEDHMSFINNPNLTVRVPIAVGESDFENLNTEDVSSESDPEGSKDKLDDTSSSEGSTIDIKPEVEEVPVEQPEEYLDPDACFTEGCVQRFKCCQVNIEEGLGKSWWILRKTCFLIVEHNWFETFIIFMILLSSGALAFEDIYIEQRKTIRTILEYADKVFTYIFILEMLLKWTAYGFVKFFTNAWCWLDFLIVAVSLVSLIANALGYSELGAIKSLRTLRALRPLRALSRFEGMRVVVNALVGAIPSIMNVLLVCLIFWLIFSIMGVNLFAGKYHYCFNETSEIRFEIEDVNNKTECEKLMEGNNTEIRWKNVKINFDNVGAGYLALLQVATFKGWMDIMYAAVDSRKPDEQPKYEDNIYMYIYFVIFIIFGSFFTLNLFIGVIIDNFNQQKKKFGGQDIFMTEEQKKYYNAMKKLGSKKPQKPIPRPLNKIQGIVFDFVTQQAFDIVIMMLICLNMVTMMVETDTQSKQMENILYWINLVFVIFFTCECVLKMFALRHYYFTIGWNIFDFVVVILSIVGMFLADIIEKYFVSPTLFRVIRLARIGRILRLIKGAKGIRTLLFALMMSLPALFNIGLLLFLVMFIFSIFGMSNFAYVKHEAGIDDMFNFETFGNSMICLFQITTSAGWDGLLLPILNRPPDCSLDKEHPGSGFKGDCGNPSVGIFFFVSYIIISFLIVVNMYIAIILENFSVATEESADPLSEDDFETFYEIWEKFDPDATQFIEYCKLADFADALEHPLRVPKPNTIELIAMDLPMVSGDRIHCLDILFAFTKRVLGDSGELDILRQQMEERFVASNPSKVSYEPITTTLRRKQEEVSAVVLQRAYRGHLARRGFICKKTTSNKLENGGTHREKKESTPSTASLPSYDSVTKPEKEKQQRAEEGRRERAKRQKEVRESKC

| inhibition at 1 µM | Structure (SMILES) |
| --- | --- |
| < 30% | COC(C)(C)c1nnc2cnc(-c3ccc(OC(C)C(F)(F)F)nc3)cn12 (racemic) [Compound II-6, 3-(1-methoxy-1-methyl-ethyl)-6-[6-[rac-(1R)-2,2,2-trifluoro-1-methyl-ethoxy]-3-pyridyl]-[1,2,4]triazolo[4,3-a]pyrazine] |
| > 70% | CO[C@H](C)c1nnc2cnc(-c3cnc(OC(C)(C)C(F)(F)F)c(F)c3)cn12 (single isomer, unassigned) [Compound I-1] |
| 30 to 70% | CO[C@@H](C)c1nnc2cnc(-c3cnc(OC(C)(C)C(F)(F)F)c(F)c3)cn12 (single isomer, unassigned) [Compound I-2] |
| 30 to 70% | CO[C@H](C)c1nnc2cnc(-c3cnc(OC4(C(F)(F)F)CCC4)c(F)c3)cn12 (single isomer, unassigned) [Compound I-3] |
| 30 to 70% | CO[C@@H](C)c1nnc2cnc(-c3cnc(OC4(C(F)(F)F)CCC4)c(F)c3)cn12 (single isomer, unassigned) [Compound I-4] |
| 30 to 70% | CO[C@@H](C)c1nnc2cnc(-c3ccc(OC4(C(F)(F)F)CCC4)nc3)cn12 (single isomer, unassigned) [Compound I-5] |
| 30 to 70% | CO[C@H](C)c1nnc2cnc(-c3ccc(OC4(C(F)(F)F)CCC4)nc3)cn12 (single isomer, unassigned) [Compound I-6] |
| 30 to 70% | CO[C@H](C)c1nnc2cnc(-c3ccc(OC(C)(C)C(F)(F)F)nc3)cn12 (single isomer, unassigned) [Compound I-9] |
| 30 to 70% | CO[C@@H](C)c1nnc2cnc(-c3ccc(OC(C)(C)C(F)(F)F)nc3)cn12 (single isomer, unassigned) [Compound I-10] |
| 30 to 70% | CO[C@H](C)c1nnc2cnc(-c3cnc(O[C@H](C4CC4)C(F)(F)F)c(F)c3)cn12 (single isomer, unassigned) [Compound I-15] |
| 30 to 70% | CO[C@@H](C)c1nnc2cnc(-c3cnc(O[C@H](C4CC4)C(F)(F)F)c(F)c3)cn12 (single isomer, unassigned) [Compound I-16] |
| < 30% | CO[C@H](C)c1nnc2cnc(-c3cnc(O[C@@H](C4CC4)C(F)(F)F)c(F)c3)cn12 (single isomer, unassigned) [Compound I-17] |
| 30 to 70% | CO[C@@H](C)c1nnc2cnc(-c3cnc(O[C@@H](C4CC4)C(F)(F)F)c(F)c3)cn12 (single isomer, unassigned) [Compound I-18] |
| < 30% | CO[C@@H](C)c1nnc2cnc(-c3ccc(O[C@@H](C4CC4)C(F)(F)F)nc3)cn12 (single isomer, unassigned) [Compound I-21] |
| < 30% | CO[C@H](C)c1nnc2cnc(-c3ccc(O[C@@H](C4CC4)C(F)(F)F)nc3)cn12 (single isomer, unassigned) [Compound I-22] |
| < 30% | CO[C@@H](C)c1nnc2cnc(-c3ccc(O[C@H](C4CC4)C(F)(F)F)nc3)cn12 (single isomer, unassigned) [Compound I-23] |
| < 30% | CO[C@H](C)c1nnc2cnc(-c3ccc(O[C@H](C4CC4)C(F)(F)F)nc3)cn12 (single isomer, unassigned) [Compound I-24] |
| > 70% | COC(F)(F)c1nnc2cnc(-c3ccc([C@@H]4CC4(F)F)cc3)cn12 (single isomer, unassigned) [Compound III-3] |

| inhibition at 1 µM | Structure (SMILES) |
| --- | --- |
| 30 to 70% | COC(F)(F)c1nnc2cnc(-c3ccc([C@H]4CC4(F)F)cc3)cn12 (single isomer, unassigned) [Compound III-4] |
| > 70% | COC(F)(F)c1nnc2cnc(-c3ccc([C@H]4CC4(F)F)cc3C)cn12 (single isomer, unassigned) [Compound III-7] |
| > 70% | COC(F)(F)c1nnc2cnc(-c3ccc([C@@H]4CC4(F)F)cc3C)cn12 (single isomer, unassigned) [Compound III-8] |
| 30 to 70% | CCOC(F)(F)c1nnc2cnc(-c3ccc([C@@H](C)OCC(F)(F)F)cc3C)cn12 (single isomer, unassigned) [Compound III-9] |
| < 30% | CCOC(F)(F)c1nnc2cnc(-c3ccc([C@H](C)OCC(F)(F)F)cc3C)cn12 (single isomer, unassigned) [Compound III-10] |
| 30 to 70% | FC(F)(F)c1nnc2cnc(-c3ccc(O[C@H](C4CC4)C(F)(F)F)nc3)cn12 (single isomer, unassigned) [Compound III-14] |
| < 30% | COC(F)(F)c1nnc2cnc(-c3ccc([C@@H](C)OCC(F)(F)F)cc3)cn12 (single isomer, unassigned) [Compound III-17] |
| < 30% | COC(F)(F)c1nnc2cnc(-c3ccc([C@H](C)OCC(F)(F)F)cc3)cn12 (single isomer, unassigned) [Compound III-18] |
| < 30% | CCOC(F)(F)c1nnc2cnc(-c3ccc([C@@H](C)OCC(F)(F)F)cc3)cn12 (single isomer, unassigned) [Compound III-19] |
| 30 to 70% | CCOC(F)(F)c1nnc2cnc(-c3ccc([C@H](C)OCC(F)(F)F)cc3)cn12 (single isomer, unassigned) [Compound III-20] |
| 30 to 70% | CCO[C@@H](C)c1nnc2cnc(-c3ccc(OC(C)(C)C(F)(F)F)nc3)cn12 [Compound I-8, (S)-3-(1-ethoxyethyl)-6-(6-((1,1,1-trifluoro-2-methylpropan-2-yl)oxy)pyridin-3-yl)-[1,2,4]triazolo[4,3-a]pyrazine] |
| 30 to 70% | CCO[C@@H](C)c1nnc2cnc(-c3cnc(OC(C)(C)C(F)(F)F)c(F)c3)cn12 [Compound I-12, 6-[5-fluoro-6-(2,2,2-trifluoro-1,1-dimethyl-ethoxy)-3-pyridyl]-3-[(1S)-1-ethoxyethyl]-[1,2,4]triazolo[4,3-a]pyrazine] |
| 30 to 70% | CCO[C@H](C)c1nnc2cnc(-c3cnc(OC(C)(C)C(F)(F)F)c(F)c3)cn12 [Compound I-13, (R)-3-(1-ethoxyethyl)-6-(5-fluoro-6-((1,1,1-trifluoro-2-methylpropan-2-yl)oxy)pyridin-3-yl)-[1,2,4]triazolo[4,3-a]pyrazine] |
| 30 to 70% | CCO[C@H](C)c1nnc2cnc(-c3ccc(OC(C)(C)C(F)(F)F)nc3)cn12 [Compound I-19, (R)-3-(1-ethoxyethyl)-6-(6-((1,1,1-trifluoro-2-methylpropan-2-yl)oxy)pyridin-3-yl)-[1,2,4]triazolo[4,3-a]pyrazine] |
| < 30% | COC1(c2nnc3cnc(-c4cnc(OCC(F)(F)F)c(F)c4)cn23)CC1 [Compound II-1, 6-(5-fluoro-6-(2,2,2-trifluoroethoxy)pyridin-3-yl)-3-(1-methoxycyclopropyl)-[1,2,4]triazolo[4,3-a]pyrazine] |
| < 30% | COC1(c2nnc3cnc(-c4cnc(O[C@H](C)C(F)(F)F)c(F)c4)cn23)CC1 [Compound II-2, (R)-6-(5-fluoro-6-((1,1,1-trifluoropropan-2-yl)oxy)pyridin-3-yl)-3-(1-methoxycyclopropyl)-[1,2,4]triazolo[4,3-a]pyrazine] |
| 30 to 70% | COC1(c2nnc3cnc(-c4cnc(O[C@@H](C)C(F)(F)F)c(F)c4)cn23)CC1 [Compound II-3, (S)-6-(5-fluoro-6-((1,1,1-trifluoropropan-2-yl)oxy)pyridin-3-yl)-3-(1-methoxycyclopropyl)-[1,2,4]triazolo[4,3-a]pyrazine] |

| Structure (SMILES) | inhibition at 1 µM |
| --- | --- |
| CCO[C@@H](C)c1nnc2cnc(-c3cnc(OC4(C(F)(F)F)CCC4)c(F)c3)cn12 [Compound I-7, (S)-3-(1-ethoxyethyl)-6-(5-fluoro-6-(1-(trifluoromethyl)cyclobutoxy)pyridin-3-yl)-[1,2,4]triazolo[4,3-a]pyrazine] | 30 to 70% |
| CCO[C@@H](C)c1nnc2cnc(-c3ccc(OC4(C(F)(F)F)CCC4)nc3)cn12 [Compound I-11, (S)-3-(1-ethoxyethyl)-6-(6-(1-(trifluoromethyl)cyclobutoxy)pyridin-3-yl)-[1,2,4]triazolo[4,3-a]pyrazine] | 30 to 70% |
| CCO[C@H](C)c1nnc2cnc(-c3cnc(OC4(C(F)(F)F)CCC4)c(F)c3)cn12 [Compound I-14, (R)-3-(1-ethoxyethyl)-6-(5-fluoro-6-(1-(trifluoromethyl)cyclobutoxy)pyridin-3-yl)-[1,2,4]triazolo[4,3-a]pyrazine] | 30 to 70% |
| CCO[C@H](C)c1nnc2cnc(-c3ccc(OC4(C(F)(F)F)CCC4)nc3)cn12 [Compound I-20, (R)-3-(1-ethoxyethyl)-6-(6-(1-(trifluoromethyl)cyclobutoxy)pyridin-3-yl)-[1,2,4]triazolo[4,3-a]pyrazine] | 30 to 70% |
